Reference: ChEMBL document CHEMBL1201862, “PubChem BioAssay data set” (2004)
The source made the active and inactive calls.

Columns and labels:
[1] = HepG2 cell cytotoxicity, dose response, cytotoxicity control for Shn3 inhibitor project, CellTiter-Glo, cherry-picked (AID 624134); type: functional, cell-based
[2] = Counterscreen for inhibitors of Trypanosoma brucei methionyl tRNA synthetase (MetRS): Luminescence-based cell-based high throughput dose response assay to identify compounds that are cytotoxic to Jurkat human T lymphocyte cells.; type: functional
[3] = Shn3 3'UTR reporter inhibitors, dose response, cell-based, Clone20 osteoblasts, firefly luciferase, cherry-picked (AID 624132); type: functional;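 further: firefly luciferase luminescence from reporter carrying the Shn3 3'UTR in osteoblasts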
[4] = control 3'UTR Renilla luciferase suppression, dose response, counter-screen for Shn3 inhibitor project, cell-based, Clone20-Shn3RL, cherry-picked (AID 624133); type: functional
[5] = molecular target: T1, Methionyl-tRNA synthetase, putative (Trypanosoma brucei brucei, UniProt Q38C91); type: functional, Trypanosoma brucei brucei strain 927/4 GUTat10.1
[6] = molecular target: T1, Methionyl-tRNA synthetase, putative; type: functional, Trypanosoma brucei brucei strain 927/4 GUTat10.1; remark: listed apart in the source
Cytochrome P450 3A4 = Cytochrome P450 3A4 (Homo sapiens, UniProt P08684);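 further: CYP3A4 tested as one member of a cytochrome P450 panel screen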
Cytochrome P450 2D6 = Cytochrome P450 2D6 (Homo sapiens, UniProt P10635);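 further: CYP2D6 member of a cytochrome P450 panel assay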
Cytochrome P450 2C9 = Cytochrome P450 2C9 (Homo sapiens, UniProt P11712)
Beta Lactamase [7] = molecular target: T2, Beta Lactamase (Pseudomonas aeruginosa, UniProt Q932Y6); test: VIM-2 metallo-beta-lactamase inhibitor potency, dose response, biochemical, epi-absorbance readout, selective inhibitors (AID 1919)
Beta-lactamase [8] = molecular target: T3, Beta-lactamase (Pseudomonas aeruginosa, UniProt Q79MP6); test: IMP-1 metallo-beta-lactamase inhibitors, dose response, selectivity assay for VIM-2 inhibitor project, biochemical, epi-absorbance (AID 1920)
Beta Lactamase [9] = molecular target: T2, Beta Lactamase; test: VIM-2 inhibitor FRET-based artefact check, dose response, artefact control for selective VIM-2 inhibitor project, biochemical, FRET readout, CCF2 substrate (AID 1926)
Beta-lactamase [10] = molecular target: Beta-lactamase (Salmonella choleraesuis (strain SC-B67), UniProt Q5J463); test: Epi-absorbance-based counterscreen for selective VIM-2 inhibitors: dose response biochemical high throughput screening assay to identify inhibitors of TEM-1 serine-beta-lactamase.
Beta-lactamase [11] = molecular target: T3, Beta-lactamase; test: […] counterscreen for selective VIM-2 inhibitors: dose response biochemical high throughput screening assay to identify inhibitors of IMP-1 metallo-beta-lactamase.

T1 sequence (Q38C91 whole entry): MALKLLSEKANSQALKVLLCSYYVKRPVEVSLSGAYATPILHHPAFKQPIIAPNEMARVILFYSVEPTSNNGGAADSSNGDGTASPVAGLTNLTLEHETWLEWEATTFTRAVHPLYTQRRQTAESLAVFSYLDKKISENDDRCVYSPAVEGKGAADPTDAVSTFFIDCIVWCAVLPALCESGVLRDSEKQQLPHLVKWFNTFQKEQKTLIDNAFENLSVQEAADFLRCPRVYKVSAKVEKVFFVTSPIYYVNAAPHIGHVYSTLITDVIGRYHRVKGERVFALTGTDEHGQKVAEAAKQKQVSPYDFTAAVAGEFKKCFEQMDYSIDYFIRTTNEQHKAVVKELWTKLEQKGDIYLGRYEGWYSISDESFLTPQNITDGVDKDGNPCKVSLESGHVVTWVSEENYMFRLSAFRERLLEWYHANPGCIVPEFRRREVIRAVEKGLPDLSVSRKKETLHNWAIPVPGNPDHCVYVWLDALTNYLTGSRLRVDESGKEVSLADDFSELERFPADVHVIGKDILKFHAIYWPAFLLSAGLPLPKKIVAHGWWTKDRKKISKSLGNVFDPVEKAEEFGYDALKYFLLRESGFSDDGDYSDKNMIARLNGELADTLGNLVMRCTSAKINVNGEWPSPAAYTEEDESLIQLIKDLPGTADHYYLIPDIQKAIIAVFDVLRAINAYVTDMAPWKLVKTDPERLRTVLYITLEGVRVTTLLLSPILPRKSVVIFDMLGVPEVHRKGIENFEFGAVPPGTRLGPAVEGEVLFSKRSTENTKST
T2 sequence (Q932Y6 whole entry): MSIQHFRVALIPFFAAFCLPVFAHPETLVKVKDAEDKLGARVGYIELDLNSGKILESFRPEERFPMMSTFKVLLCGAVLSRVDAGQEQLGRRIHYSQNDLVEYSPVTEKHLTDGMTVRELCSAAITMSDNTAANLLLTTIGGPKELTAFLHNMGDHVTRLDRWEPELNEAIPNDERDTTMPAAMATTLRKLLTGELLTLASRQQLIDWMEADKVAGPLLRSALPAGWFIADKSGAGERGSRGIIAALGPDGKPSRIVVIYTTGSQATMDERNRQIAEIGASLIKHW
T3 sequence (Q79MP6 whole entry): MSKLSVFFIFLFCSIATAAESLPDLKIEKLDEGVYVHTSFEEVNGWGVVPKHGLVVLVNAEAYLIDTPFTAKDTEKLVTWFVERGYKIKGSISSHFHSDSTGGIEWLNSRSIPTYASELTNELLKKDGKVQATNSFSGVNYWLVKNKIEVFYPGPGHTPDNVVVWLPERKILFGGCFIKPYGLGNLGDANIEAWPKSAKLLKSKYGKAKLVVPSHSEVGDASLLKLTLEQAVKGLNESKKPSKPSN
Sequence of Cytochrome P450 2C9 (P11712 whole entry): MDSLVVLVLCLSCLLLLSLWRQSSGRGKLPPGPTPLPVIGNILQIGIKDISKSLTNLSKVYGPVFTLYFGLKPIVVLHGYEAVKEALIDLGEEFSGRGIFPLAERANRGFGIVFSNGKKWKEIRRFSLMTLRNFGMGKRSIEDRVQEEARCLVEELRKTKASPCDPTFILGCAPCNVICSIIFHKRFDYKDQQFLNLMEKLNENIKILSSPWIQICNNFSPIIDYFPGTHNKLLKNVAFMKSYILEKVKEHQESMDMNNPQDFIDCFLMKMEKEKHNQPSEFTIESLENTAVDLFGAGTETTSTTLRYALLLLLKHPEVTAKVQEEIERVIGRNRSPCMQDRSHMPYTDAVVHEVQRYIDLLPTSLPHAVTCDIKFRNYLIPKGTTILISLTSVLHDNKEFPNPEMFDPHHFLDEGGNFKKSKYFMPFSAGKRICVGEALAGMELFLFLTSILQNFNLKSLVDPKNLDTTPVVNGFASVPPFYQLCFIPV
Sequence of Beta-lactamase (Salmonella choleraesuis (strain SC-B67), UniProt Q5J463) (Q5J463 whole entry): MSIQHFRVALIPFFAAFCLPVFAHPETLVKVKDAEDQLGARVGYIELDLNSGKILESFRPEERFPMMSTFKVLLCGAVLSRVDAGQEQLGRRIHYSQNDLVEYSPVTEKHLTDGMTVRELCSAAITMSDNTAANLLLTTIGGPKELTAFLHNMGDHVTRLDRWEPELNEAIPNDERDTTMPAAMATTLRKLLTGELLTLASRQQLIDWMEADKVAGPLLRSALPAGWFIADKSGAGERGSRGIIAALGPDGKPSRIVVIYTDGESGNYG
Sequence of Cytochrome P450 3A4 (P08684 whole entry): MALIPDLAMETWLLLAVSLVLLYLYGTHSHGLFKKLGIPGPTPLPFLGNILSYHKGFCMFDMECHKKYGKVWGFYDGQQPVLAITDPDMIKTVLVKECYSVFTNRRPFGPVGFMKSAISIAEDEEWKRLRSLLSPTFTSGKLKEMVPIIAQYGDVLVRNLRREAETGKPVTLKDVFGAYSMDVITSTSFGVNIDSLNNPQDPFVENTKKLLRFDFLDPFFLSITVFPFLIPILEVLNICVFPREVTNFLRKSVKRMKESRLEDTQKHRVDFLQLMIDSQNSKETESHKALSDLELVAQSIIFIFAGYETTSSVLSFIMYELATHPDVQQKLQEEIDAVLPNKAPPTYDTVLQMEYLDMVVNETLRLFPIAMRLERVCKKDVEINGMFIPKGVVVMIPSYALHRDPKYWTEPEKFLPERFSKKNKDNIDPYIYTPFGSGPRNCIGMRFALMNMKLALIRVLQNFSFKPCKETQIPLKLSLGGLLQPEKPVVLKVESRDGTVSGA
Sequence of Cytochrome P450 2D6 (P10635 whole entry): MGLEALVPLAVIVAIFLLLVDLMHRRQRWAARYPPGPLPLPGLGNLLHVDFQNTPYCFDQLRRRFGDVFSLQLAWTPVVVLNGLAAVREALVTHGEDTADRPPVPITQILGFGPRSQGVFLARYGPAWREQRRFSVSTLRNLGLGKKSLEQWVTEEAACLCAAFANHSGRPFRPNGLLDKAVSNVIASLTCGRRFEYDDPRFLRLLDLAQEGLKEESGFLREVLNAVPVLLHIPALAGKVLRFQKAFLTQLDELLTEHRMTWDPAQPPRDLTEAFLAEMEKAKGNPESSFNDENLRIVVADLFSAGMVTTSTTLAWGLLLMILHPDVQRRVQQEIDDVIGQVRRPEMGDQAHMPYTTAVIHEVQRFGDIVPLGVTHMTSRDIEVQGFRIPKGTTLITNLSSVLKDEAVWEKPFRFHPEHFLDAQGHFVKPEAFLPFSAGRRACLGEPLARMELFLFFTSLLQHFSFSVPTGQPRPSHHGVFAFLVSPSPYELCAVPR

Compound | AC50 [1] | IC50 [2] | AC50 [3] | AC50 [4] | IC50 [5] | IC50 [6] | AC50 (Cytochrome P450 3A4) | AC50 (Cytochrome P450 2D6) | AC50 (Cytochrome P450 2C9) | IC50 (Beta Lactamase [7]) | IC50 (Beta-lactamase [8]) | IC50 (Beta Lactamase [9]) | IC50 (Beta-lactamase [10]) | IC50 (Beta-lactamase [11])
Nc1nc(N)c(-c2cccc(C(F)(F)F)c2)c(Cc2cccc(C(F)(F)F)c2)n1 | 5.88 µM (active) | 20.7 µM (inactive) | 3.6 µM (active) | 3.87 µM (active) | 12.7 µM (inactive) | 19.5 µM (inactive) | 3.16 µM (inconclusive) | 3.98 µM (inconclusive) | 5.01 µM (inconclusive) | – | – | – | – | –
COc1ccc(C(=O)C2=C(O)C(=O)N(Cc3ccco3)C2c2cc(OC)ccc2OC)cc1 (centres undefined) | – | – | – | – | – | – | – | – | – | 12.8 µM (inactive) | > 59.6 µM (inactive) | 5.61 µM (active) | > 59.6 µM (inactive) | > 59.6 µM (inactive)
